Measurements published in PMC4279137 (Pharmaceutics, 2014).
Like-named read-outs stand apart in the source and are kept apart here.

How the values were obtained:
CYP2C19 [1] = target: T1, CYP2C19 (Homo sapiens, UniProt P33261); experiment: CYP2C19/CEC High Throughput Inhibitor Screening Kit; format: biochemical
T1 construct: purchased Becton Dickinson Biosciences, Heidelberg, Germany
Protocol: (§1) Inhibition studies were performed with the CYP2D6/AMMC, the CYP2C19/CEC, and the CYP3A4/BFC High Throughput Inhibitor Screening Kit (Becton Dickinson Biosciences, Heidelberg, Germany) according to the manufacturer’s instructions. The Screening Kits contain the respective recombinant CYP and fluorogenic substrates, which are blocked dyes yielding minimal fluorescence signal until cleaved by the enzyme. […] Eight concentrations (9 nM–20 µM) were tested and the experiment was conducted in triplicate.

BCRP = target: T2, BCRP (Homo sapiens, UniProt Q9UNQ0); design: method as in PMID 20222053; conditions: MDCKII-BCRP cells; read-out: IC50 BCRP inhibition, control compound; cited from earlier work
T2 construct: expressed in transfected cells; host or cells: MDCKII-BCRP (Madin-Darby canine kidney cells)
T2 sequence (Q9UNQ0 whole entry): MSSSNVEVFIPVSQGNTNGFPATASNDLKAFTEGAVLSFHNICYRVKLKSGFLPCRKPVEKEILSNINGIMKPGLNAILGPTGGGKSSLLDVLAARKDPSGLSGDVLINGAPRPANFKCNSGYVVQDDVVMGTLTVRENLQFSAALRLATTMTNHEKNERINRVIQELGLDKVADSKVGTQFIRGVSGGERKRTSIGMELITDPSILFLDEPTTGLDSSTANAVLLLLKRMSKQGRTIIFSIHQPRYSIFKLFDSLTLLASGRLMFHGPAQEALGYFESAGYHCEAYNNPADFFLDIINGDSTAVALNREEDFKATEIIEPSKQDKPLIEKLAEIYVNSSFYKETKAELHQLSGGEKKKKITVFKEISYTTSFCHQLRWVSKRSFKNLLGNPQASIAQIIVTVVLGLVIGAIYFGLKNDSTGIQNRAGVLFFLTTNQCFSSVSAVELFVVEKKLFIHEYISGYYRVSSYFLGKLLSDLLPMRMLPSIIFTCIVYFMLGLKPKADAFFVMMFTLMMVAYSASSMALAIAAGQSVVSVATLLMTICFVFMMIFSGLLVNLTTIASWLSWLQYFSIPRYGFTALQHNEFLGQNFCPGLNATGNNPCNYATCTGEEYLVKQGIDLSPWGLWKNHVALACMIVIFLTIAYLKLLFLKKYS

[2] = Growth inhibition assay in MDCKII-MDR1 cells; format: cell-based, canine; conditions: dog
[3] = Stock solution in DMSO (highest possible solution); format: physicochemical
ABCC1 = experiment: Induction assay, mRNA by real-time RT-PCR in LS180 cells: ABCC1; format: cell-based, human; conditions: 0.1-5 µM, four days
Protocol: (§2) The human colon adenocarcinoma cell line LS180 (available at ATCC, Manassas, VA, USA) was used for induction experiments as a surrogate for the intestine being a major site of drug interactions and being an ideal model for investigating PXR and AhR mediated induction. Cells were cultured as described previously. For the induction experiments, LS180 cells were seeded in 75 cm^2 culturing flasks and incubated for three days. […] Rifampicin (20 µM) served as a positive control and culture medium with 0.02% DMSO as a negative control. For induction of CYP1A1 and CYP1A2, 5 nM TCDD was used as a positive control. All incubation solutions were adjusted to 0.02% DMSO. […]
(§3) RNA was isolated using the RNeasy Mini-Kit and cDNA was synthesised with the RevertAid™ H Minus First Strand cDNA Synthesis Kit according to the manufacturer’s instructions. mRNA expression was quantified by real-time RT-PCR with the LightCycler® 480 (Roche Applied Science, Mannheim, Germany) as described previously. […] Data were evaluated by calibrator-normalised relative quantification with efficiency correction using the LightCycler® 480 software version 1.5 (Roche Applied Science, Mannheim, Germany). The software calculated the relative amount of the target gene and the reference gene (G6PDH) based on the crossing points. Results were expressed as the target/reference ratio divided by the target/reference ratio of the calibrator. […]

P-gp = experiment: Western blot analysis of P-gp expression in LS180 cells; format: cell-based, human; conditions: four days
Protocol: The human colon adenocarcinoma cell line LS180 (available at ATCC, Manassas, VA, USA) was used for induction experiments as a surrogate for the intestine being a major site of drug interactions and being an ideal model for investigating PXR and AhR mediated induction. Cells were cultured as described previously. For the induction experiments, LS180 cells were seeded in 75 cm^2 culturing flasks and incubated for three days. […] Rifampicin (20 µM) served as a positive control and culture medium with 0.02% DMSO as a negative control. For induction of CYP1A1 and CYP1A2, 5 nM TCDD was used as a positive control. All incubation solutions were adjusted to 0.02% DMSO. After harvesting, cells were splitted for RNA and protein extraction.

UGT2B7 = experiment: Induction assay, mRNA by real-time RT-PCR in LS180 cells: UGT2B7; format: cell-based, human; conditions: four days, at higher concentrations
Protocol: as §2, §3

CYP3A4 [4] = experiment: Induction assay, mRNA by real-time RT-PCR in LS180 cells: CYP3A4; format: cell-based, human; conditions: 0.1-5 µM, four days
Protocol: as §2, §3

NR1I2 = experiment: Induction assay, mRNA by real-time RT-PCR in LS180 cells: NR1I2; format: cell-based, human; conditions: four days, at higher concentrations
Protocol: as §2, §3

ABCG2 = experiment: Induction assay, mRNA by real-time RT-PCR in LS180 cells: ABCG2; format: cell-based, human; conditions: 0.1-5 µM, four days
Protocol: as §2, §3

ABCC3 = experiment: Induction assay, mRNA by real-time RT-PCR in LS180 cells: ABCC3; format: cell-based, human; conditions: 0.1-5 µM, four days
Protocol: as §2, §3

CYP1A2 = experiment: Induction assay, mRNA by real-time RT-PCR in LS180 cells: CYP1A2; format: cell-based, human
Protocol: as §2, §3

OATP1B3 [5] = target: T3, OATP1B3 (Homo sapiens, UniProt Q9NPD5); experiment: OATP inhibition assay (8-FcA flow cytometry uptake assay) in HEK-OATP1B3 cells; format: cell-based; conditions: 8-fluorescein-cAMP uptake
T3 construct: expressed in transfected cells; host or cells: HEK293 (HEK-OATP1B3)
T3 sequence (Q9NPD5 whole entry): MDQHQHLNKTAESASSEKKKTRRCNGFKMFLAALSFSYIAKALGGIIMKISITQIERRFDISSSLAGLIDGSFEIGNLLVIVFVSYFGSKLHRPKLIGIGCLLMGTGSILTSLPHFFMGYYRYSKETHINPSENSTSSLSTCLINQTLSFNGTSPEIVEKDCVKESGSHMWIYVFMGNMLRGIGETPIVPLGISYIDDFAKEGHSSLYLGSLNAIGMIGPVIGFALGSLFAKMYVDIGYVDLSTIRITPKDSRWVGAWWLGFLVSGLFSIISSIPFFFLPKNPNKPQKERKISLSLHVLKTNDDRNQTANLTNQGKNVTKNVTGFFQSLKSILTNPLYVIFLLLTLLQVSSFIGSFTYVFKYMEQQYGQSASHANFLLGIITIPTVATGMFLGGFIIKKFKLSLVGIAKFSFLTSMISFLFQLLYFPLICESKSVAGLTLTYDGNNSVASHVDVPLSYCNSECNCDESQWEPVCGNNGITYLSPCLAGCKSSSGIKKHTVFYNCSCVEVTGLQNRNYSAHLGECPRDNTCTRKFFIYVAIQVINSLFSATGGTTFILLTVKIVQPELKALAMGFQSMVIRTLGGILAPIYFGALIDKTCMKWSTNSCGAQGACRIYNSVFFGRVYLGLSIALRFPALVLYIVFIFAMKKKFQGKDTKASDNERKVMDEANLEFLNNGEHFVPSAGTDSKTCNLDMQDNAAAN
Protocol: (§4) For assessing human organic antion transporting polypeptides (OATPs = solute carriers of organic anions (SLCOs)) inhibition, the human embryonic kidney cell line HEK293 stably transfected with OATP1B1 (HEK-OATP1B1), OATP1B3 (HEK-OATP1B3), or the empty control vector (HEK293-VC G418) were used. Cells were cultured under standard cell culture conditions with DMEM supplemented with 10% FCS, 2 mM glutamine, 100 U/mL penicillin, 100 µg/mL streptomycin sulphate, and 800 µg/mL G418. Cells were kindly provided by Dr. D. Keppler (German Cancer Research Centre, Heidelberg, Germany).
(§5) Inhibition of OATP1B1 and OATP1B3 was analysed by flow cytometric uptake of the fluorescent 8-FcA as described previously using HEK-OATP1B1, OATP1B3, and HEK293-VC G418 (as a control). […] Subsequently, cells were washed once with 1 mL ice-cold incubation medium and resuspended in 500 µL incubation medium and kept on ice until flow cytometry. Intracellular fluorescence was analysed in a Becton Dickinson LSRII flow cytometer (Becton Dickinson, Heidelberg, Germany) with a solid state coherent sapphire blue laser and a 530 bandpass filter for 8-FcA.
(§6) In each sample 30,000 cells were counted. Cell debris was eliminated by gating the viable cells in the forward versus side scatter. […] Each experiment was performed at least in triplicate.

SLCO2B1 = experiment: Induction assay, mRNA by real-time RT-PCR in LS180 cells: SLCO2B1; format: cell-based, human; conditions: four days, at higher concentrations
Protocol: as §2, §3

ABCC2 = experiment: Induction assay, mRNA by real-time RT-PCR in LS180 cells: ABCC2; format: cell-based, human; conditions: four days, at higher concentrations
Protocol: as §2, §3

OATP1B1 [6] = target: T4, OATP1B1 (Homo sapiens, UniProt Q9Y6L6); experiment: OATP inhibition assay (8-FcA flow cytometry uptake assay) in HEK-OATP1B1 cells; format: cell-based; conditions: 8-fluorescein-cAMP uptake
T4 construct: expressed in transfected cells; host or cells: HEK293 (HEK-OATP1B1)
T4 sequence (Q9Y6L6 whole entry): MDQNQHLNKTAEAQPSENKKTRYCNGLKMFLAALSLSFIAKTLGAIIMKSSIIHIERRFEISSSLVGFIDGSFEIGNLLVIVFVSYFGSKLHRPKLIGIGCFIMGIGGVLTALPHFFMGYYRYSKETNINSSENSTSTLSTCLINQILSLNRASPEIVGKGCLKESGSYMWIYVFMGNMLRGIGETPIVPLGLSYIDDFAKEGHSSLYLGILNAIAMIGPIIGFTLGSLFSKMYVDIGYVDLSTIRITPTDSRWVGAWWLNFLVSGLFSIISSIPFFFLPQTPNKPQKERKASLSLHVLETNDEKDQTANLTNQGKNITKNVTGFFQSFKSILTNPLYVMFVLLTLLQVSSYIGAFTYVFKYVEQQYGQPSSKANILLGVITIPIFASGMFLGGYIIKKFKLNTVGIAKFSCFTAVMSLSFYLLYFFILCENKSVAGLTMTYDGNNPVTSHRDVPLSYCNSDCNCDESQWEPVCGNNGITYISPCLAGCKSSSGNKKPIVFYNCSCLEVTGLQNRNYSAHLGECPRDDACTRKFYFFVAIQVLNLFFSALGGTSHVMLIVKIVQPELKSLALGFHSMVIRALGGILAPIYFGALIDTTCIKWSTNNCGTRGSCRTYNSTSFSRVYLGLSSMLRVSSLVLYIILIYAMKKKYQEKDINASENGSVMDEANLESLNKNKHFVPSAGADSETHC
Protocol: as §4, §5, §6

MDCKII = experiment: Growth inhibition assay in MDCKII cells; format: cell-based, canine; conditions: Canis lupus familiaris, MDCK-II; MDCKII parental cells
AhR = target: T5, AhR (Homo sapiens, UniProt P35869); experiment: AhR reporter gene assay in AZ-AhR cells; format: cell-based; conditions: 24 h, luciferase reporter, read-out: EC50 activation of AhR activity
T5 construct: endogenous in cells; host or cells: AZ-AhR (HepG2)
T5 sequence (P35869 11-848): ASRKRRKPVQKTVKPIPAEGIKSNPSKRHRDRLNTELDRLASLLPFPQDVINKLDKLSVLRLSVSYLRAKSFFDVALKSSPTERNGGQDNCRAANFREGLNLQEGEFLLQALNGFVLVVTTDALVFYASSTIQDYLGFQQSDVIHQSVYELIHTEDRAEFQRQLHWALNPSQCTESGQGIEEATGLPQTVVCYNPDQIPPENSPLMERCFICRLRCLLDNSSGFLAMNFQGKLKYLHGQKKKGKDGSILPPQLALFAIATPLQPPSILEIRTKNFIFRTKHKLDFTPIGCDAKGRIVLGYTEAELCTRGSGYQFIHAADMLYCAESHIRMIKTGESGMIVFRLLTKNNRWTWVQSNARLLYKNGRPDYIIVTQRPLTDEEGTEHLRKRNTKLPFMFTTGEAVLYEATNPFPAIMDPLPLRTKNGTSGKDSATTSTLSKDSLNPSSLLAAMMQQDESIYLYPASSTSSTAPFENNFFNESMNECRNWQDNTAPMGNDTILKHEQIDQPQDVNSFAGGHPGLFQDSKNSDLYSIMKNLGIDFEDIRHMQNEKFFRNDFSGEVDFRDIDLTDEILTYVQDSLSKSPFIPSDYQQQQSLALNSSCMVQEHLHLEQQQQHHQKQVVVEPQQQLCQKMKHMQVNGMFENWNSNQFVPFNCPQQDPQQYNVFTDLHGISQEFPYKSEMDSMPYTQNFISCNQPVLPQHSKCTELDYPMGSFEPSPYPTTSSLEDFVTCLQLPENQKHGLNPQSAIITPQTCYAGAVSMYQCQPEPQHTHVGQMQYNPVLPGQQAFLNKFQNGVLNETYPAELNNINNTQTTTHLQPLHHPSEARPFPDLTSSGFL
Protocol: Human hepatoma HepG2 cells stably transfected with a construct containing several AhR binding sites upstream of a luciferase reporter gene were used for the AhR reporter gene assays as described previously.
In total, 60,000 AZ-AhR cells were seeded into each well of 96-well plates with clear bottom and clear lid for luminometry. […] The assay was performed with the Steady-Glo™ Luciferase Assay System according to the manufacturer’s instructions. Drug-induced increases of AhR receptor activity were normalised to activity of non-drug treated controls set to 1 (=100%).

CYP2D6 = target: T6, CYP2D6 (Homo sapiens, UniProt P10635); experiment: CYP2D6/AMMC High Throughput Inhibitor Screening Kit; format: biochemical; conditions: tested up to 20 µM
T6 construct: purchased Becton Dickinson Biosciences, Heidelberg, Germany
T6 sequence (P10635 whole entry): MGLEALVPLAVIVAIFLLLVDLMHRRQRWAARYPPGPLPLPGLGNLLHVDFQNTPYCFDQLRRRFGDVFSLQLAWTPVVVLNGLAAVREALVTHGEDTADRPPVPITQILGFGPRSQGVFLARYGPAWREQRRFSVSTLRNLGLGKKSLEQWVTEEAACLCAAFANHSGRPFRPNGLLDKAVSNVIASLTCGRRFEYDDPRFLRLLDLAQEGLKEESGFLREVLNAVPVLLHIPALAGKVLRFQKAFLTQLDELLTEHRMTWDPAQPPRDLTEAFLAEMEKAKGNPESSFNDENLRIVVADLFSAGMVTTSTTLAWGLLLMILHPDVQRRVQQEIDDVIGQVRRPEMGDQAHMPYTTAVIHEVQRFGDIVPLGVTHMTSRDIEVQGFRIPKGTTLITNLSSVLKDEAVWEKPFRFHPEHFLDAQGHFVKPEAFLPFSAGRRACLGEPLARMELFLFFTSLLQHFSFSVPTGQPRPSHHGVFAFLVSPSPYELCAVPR
Protocol: as §1

CYP2C19 [7] = experiment: Induction assay, mRNA by real-time RT-PCR in LS180 cells: CYP2C19; format: cell-based, human; conditions: 0.1-5 µM, four days
Protocol: as §2, §3

SLCO1B1 = experiment: Induction assay, mRNA by real-time RT-PCR in LS180 cells: SLCO1B1; format: cell-based, human; conditions: four days, at higher concentrations
Protocol: as §2, §3

ABCB1 = experiment: Induction assay, mRNA by real-time RT-PCR in LS180 cells: ABCB1; format: cell-based, human; conditions: four days, at higher concentrations
Protocol: as §2, §3

CYP1A1 = experiment: Induction assay, mRNA by real-time RT-PCR in LS180 cells: CYP1A1; format: cell-based, human
Protocol: as §2, §3

LS180 cells = experiment: Growth inhibition assay (crystal violet staining) in LS180 cells; format: cell-based; conditions: Homo sapiens, 48 h, read-out: IC20 for proliferation inhibition
Protocol: The human colon adenocarcinoma cell line LS180 (available at ATCC, Manassas, VA, USA) was used for induction experiments as a surrogate for the intestine being a major site of drug interactions and being an ideal model for investigating pregnane X receptor (PXR) and aryl hydrocarbon receptor (AhR) mediated induction. Cells were cultured under standard cell culture conditions with Dulbecco’s Modified Eagle’s Medium (DMEM) supplemented with 10% fetal calf serum, 2 mM glutamine, 100 U/mL penicillin, 100 µg/mL streptomycin sulphate, and 0.1 mM nonessential amino acids.
Growth inhibition assays in LS180 cells were conducted to determine suitable maximum concentrations for the induction assay without profound antiproliferative effects. Proliferation was quantified by crystal violet staining as described previously. […] Absorption was measured at 555 nm excitation. Proliferation was expressed as proliferation index, which was calculated as the absorption intensity of the test well in percentage points relative to zero proliferation (absorption of wells containing only medium set to 0%) and native proliferation (absorption intensity of untreated control cells set to 100%). […] Concentration-response curves and IC20 values were calculated by GraphPad Prism version 5.02 (GraphPad Software Inc., La Jolla, CA, USA) according to a sigmoid Emax model.

[8] = Growth inhibition assay in MDCKII-BCRP cells; format: cell-based, canine; conditions: dog
CYP3A4 [9] = target: CYP3A4 (Homo sapiens, UniProt P08684); experiment: in vitro
CYP3A4 (Homo sapiens, UniProt P08684), sequence (P08684 whole entry): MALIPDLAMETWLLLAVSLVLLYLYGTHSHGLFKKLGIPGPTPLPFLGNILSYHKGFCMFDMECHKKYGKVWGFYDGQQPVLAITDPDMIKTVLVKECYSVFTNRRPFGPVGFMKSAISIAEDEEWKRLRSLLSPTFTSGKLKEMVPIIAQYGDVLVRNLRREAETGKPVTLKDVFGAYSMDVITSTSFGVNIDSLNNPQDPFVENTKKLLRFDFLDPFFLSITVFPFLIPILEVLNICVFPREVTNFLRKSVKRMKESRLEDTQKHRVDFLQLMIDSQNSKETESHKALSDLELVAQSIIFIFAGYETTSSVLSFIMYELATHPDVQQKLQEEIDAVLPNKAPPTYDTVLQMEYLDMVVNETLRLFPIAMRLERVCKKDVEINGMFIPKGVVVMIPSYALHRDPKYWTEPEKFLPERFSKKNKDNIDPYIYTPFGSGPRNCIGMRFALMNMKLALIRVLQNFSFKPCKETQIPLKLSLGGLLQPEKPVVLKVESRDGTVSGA
Protocol: as §1

UGT1A3 = experiment: Induction assay, mRNA by real-time RT-PCR in LS180 cells: UGT1A3; format: cell-based, human; conditions: four days, at higher concentrations
Protocol: as §2, §3

OATP1B3 [10] = target: T3, OATP1B3; design: method as in PMID 23219525; conditions: HEK-OATP1B3 cells; read-out: IC50 OATP1B3 inhibition, control compound; cited from earlier work
OATP1B1 [11] = target: T4, OATP1B1; design: method as in PMID 23219525; conditions: HEK-OATP1B1 cells; read-out: IC50 OATP1B1 inhibition, control compound; cited from earlier work

T1 sequence (P33261 whole entry): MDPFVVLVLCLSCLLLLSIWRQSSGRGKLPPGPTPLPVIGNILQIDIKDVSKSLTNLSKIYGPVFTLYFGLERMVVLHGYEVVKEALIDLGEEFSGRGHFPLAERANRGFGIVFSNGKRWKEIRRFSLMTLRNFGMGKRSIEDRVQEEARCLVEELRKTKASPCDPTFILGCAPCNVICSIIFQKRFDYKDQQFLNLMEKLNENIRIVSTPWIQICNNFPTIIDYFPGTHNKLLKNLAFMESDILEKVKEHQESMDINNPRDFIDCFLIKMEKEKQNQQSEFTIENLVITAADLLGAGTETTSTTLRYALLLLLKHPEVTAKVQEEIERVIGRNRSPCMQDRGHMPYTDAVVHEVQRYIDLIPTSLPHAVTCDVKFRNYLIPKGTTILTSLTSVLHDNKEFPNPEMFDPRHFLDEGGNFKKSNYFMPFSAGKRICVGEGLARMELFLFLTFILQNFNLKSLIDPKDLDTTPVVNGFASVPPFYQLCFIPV

COc1ccc2[nH]c([S+]([O-])Cc3ncc(C)c(OC)c3C)nc2c1 (stereo not drawn) [omeprazole, Omeprazole]
IC50 (CYP2C19 [1]; control compound, read-out: IC50 CYP2C19 inhibition): 0.8 ± 0.2 µM

COc1ccc2c3c([nH]c2c1)[C@H](C=C(C)C)N1C(=O)[C@@H]2CCCN2C(=O)[C@@H]1C3 [Fumitremorgin C]
IC50 (BCRP): 0.7 ± 0.3 µM

CN1CCN(c2ccc3nc(-c4c(N)c5c(F)cccc5[nH]c4=O)[nH]c3c2)CC1 [Dovitinib]
IC50 at 48 h [2]: 18.3 ± 4.1 µM
stock solution, highest possible solution [3]: 10 mM
mRNA expression of ABCC1 (ABCC1): no influence
P-gp protein expression (western blot) (P-gp; at 0.1 and 0.5 µM): small increase in P-gp expression
P-gp protein expression (western blot) (P-gp; at higher dovitinib concentrations): suppression of P-gp protein expression
mRNA expression of UGT2B7 (UGT2B7): reduced
mRNA expression of CYP3A4 (CYP3A4 [4]): no influence
mRNA expression of NR1I2 (NR1I2): reduced
mRNA expression of ABCG2 (ABCG2): induced
mRNA expression of ABCC3 (ABCC3): induced
inhibition at 20 µM (CYP2C19 [1]; human, recombinant CYP2C19, probe CEC, at 20 µM): ~50%
mRNA expression of CYP1A2 (CYP1A2; 0.1-5 µM, four days): induced
induction of CYP1A2 (mRNA) (CYP1A2; Figure 3): approximately 10 fold
IC50 (OATP1B3 [5]): > 100 µM
mRNA expression of SLCO2B1 (SLCO2B1): reduced
mRNA expression of ABCC2 (ABCC2): reduced
IC50 (OATP1B1 [6]): 76.5 ± 28.9 µM
IC50 (MDCKII): 20 ± 2.9 µM
EC50 (AhR): 0.609 ± 0.282 µM
CYP2D6 inhibition (CYP2D6): not inhibited at all
mRNA expression of CYP2C19 (CYP2C19 [7]): no influence
mRNA expression of SLCO1B1 (SLCO1B1): reduced
mRNA expression of ABCB1 (ABCB1): reduced
mRNA expression of CYP1A1 (CYP1A1; 0.1-5 µM, four days): induced
induction of CYP1A1 (mRNA) (CYP1A1; Figure 3): approximately 10 fold
IC20 (LS180 cells): 4.9 ± 2.5 µM
IC50 at 48 h [8]: 21.4 ± 3.6 µM
inhibition at 20 µM (CYP3A4 [9]): ~30%
mRNA expression of UGT1A3 (UGT1A3): reduced

CO[C@H]1/C=C/O[C@@]2(C)Oc3c(C)c(O)c4c(O)c(c(/C=N/N5CCN(C)CC5)c(O)c4c3C2=O)NC(=O)/C(C)=C\C=C\[C@H](C)[C@H](O)[C@@H](C)[C@@H](O)[C@@H](C)[C@H](OC(C)=O)[C@@H]1C [Rifampicin]
IC50 (OATP1B3 [10]): 2.1 ± 1 µM
IC50 (OATP1B1 [11]): 2.4 ± 0.9 µM
